In assay [1] the target is T1, human recombinant histamine H1 receptor (Homo sapiens, UniProt P35367).
T1 construct: expressed in transfected cells; host or cells: CHO cells
Kind of assay: Histamine H1 radioligand binding ([3H]Pyrilamine). Put shortly: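 CHO-expressed receptor in modified Tris-HCl buffer (50 mM, pH 7.4; 2 mM MgCl2, 100 mM NaCl, 250 mM sucrose); bound ligand measured after filtration and washing.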

Assay [2] addresses T2, human recombinant adrenergic α2B receptor (Homo sapiens, UniProt P18089).
T2 construct: expressed in transfected cells; host or cells: CHO-K1 cells
T2 sequence (P18089 1-450): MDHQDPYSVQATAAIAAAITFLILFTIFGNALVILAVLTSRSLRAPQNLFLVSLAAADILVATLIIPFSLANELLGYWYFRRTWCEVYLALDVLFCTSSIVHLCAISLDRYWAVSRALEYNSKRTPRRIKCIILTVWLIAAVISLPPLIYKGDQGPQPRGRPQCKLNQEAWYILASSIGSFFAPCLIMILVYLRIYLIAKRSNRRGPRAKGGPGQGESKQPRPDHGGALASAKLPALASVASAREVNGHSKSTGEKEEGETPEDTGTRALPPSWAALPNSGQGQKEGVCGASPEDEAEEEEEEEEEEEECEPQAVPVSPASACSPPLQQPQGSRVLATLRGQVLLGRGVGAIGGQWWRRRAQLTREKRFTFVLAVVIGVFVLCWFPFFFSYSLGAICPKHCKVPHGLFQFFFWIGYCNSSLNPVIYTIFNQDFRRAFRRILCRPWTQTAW
Kind of assay: Adrenergic α2B radioligand binding ([3H]Rauwolscine). Further details: Inhibition of ligand binding, Adren. alpha2B: concentration or dose not given beside the values. Conditions: for Inhibition of ligand binding, Adren. alpha2B: percent inhibition of specific binding; for inhibition at 1 µM: compounds screened at 1 μM, read-out: Inhibition of ligand binding, Adren. alpha2B (percent inhibition of specific binding). A digest of the protocol: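 Incubation ran 60 minutes at 25 °C in modified Tris-HCl buffer (50 mM, pH 7.4, 12.5 mM MgCl2, 1 mM EDTA, 0.2% BSA) using CHO-K1-expressed human receptor.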

The target of assay [3] is T3, human recombinant serotonin (5-Hydroxytryptamine) 5-HT2A receptor (Homo sapiens, UniProt P28223).
T3 construct: expressed in transfected cells; host or cells: CHO-K1 cells
T3 sequence (P28223 whole entry): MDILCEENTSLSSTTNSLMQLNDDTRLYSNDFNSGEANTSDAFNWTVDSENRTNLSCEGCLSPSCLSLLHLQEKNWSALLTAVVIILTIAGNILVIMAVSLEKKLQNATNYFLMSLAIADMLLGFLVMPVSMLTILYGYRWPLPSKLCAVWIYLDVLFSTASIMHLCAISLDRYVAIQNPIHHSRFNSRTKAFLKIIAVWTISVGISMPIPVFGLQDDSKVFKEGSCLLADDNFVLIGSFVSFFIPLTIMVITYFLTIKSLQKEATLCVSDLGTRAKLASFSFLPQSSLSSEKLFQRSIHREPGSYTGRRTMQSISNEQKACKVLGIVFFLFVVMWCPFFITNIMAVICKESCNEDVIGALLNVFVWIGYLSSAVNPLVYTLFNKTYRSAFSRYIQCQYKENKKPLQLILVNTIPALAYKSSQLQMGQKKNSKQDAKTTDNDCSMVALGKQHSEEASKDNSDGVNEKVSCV
Kind of assay: Serotonin 5-HT2A radioligand binding ([3H]Ketanserin). Conditions: for Inhibition of ligand binding, Ser. 5-HT2A: percent inhibition of specific binding; for inhibition at 1 µM: read-out: Inhibition of ligand binding, Ser. 5-HT2A (percent inhibition of specific binding). The protocol: Compounds of the invention were incubated with 0.5 nM [^3H]Ketanserin for 60 minutes at 25° C. Non-specific binding was estimated in the presence of 1 μM Mianserin. Receptor proteins were filtered and washed, the filters were then counted to determine [^3H]Ketanserin specifically bound. […] Biochemical assay results are presented as the percent inhibition of specific binding in Table 6.

For assay [4], the target named is T4, human recombinant serotonin (5-Hydroxytryptamine) 5-HT2C receptor (Homo sapiens, UniProt P28335).
T4 construct: expressed in transfected cells; host or cells: CHO-K1 cells
T4 sequence (P28335 33-458): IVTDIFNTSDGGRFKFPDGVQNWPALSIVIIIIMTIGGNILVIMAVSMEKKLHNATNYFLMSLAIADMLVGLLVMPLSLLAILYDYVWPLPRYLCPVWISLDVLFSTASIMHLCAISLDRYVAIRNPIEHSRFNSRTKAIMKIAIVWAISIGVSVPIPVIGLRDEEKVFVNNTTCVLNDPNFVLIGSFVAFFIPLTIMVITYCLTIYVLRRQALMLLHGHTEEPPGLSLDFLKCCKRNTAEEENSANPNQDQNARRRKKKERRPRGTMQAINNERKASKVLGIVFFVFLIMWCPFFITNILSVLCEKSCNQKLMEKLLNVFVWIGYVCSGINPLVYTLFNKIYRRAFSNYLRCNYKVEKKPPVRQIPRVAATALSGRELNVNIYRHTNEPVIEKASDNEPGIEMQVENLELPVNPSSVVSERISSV
Kind of assay: Serotonin 5-HT2C radioligand binding ([3H]Mesulergine). Further details: Inhibition of ligand binding, Ser. 5-HT2C: concentration or dose not given beside the values. Conditions: for Inhibition of ligand binding, Ser. 5-HT2C: percent inhibition of specific binding; for inhibition at 1 µM: compounds screened at 1 μM, read-out: Inhibition of ligand binding, Ser. 5-HT2C (percent inhibition of specific binding). The protocol: Compounds of the invention were incubated with 1 nM [^3H]Mesulergine for 60 minutes at 25° C. Non-specific binding was estimated in the presence of 1 μM Mianserin. Receptor proteins were filtered and washed, the filters were then counted to determine [^3H]Mesulergine specifically bound. […] Biochemical assay results are presented as the percent inhibition of specific binding in Table 6.

The target in assay [5] is T5, human recombinant serotonin (5-Hydroxytryptamine) 5-HT6 receptor (Homo sapiens, UniProt P50406).
T5 construct: expressed in transfected cells; host or cells: human HeLa cells
T5 sequence (P50406 whole entry): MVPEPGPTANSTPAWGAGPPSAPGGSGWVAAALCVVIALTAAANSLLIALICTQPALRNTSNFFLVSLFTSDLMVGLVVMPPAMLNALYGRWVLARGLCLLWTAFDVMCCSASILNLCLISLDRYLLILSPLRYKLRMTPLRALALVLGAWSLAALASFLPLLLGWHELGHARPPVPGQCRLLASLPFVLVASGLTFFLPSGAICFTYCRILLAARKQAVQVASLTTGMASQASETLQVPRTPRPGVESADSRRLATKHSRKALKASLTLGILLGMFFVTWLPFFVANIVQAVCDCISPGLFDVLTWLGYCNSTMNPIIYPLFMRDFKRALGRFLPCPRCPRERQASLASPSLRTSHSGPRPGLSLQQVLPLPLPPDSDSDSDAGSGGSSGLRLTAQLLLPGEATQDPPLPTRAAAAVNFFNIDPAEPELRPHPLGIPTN
The assay is described as follows: Serotonin 5-HT6 radioligand binding ([3H]LSD). Further details: Inhibition of ligand binding, Ser. 5-HT6: concentration or dose not given beside the values. Conditions: for Inhibition of ligand binding, Ser. 5-HT6: percent inhibition of specific binding; for inhibition at 1 µM: compounds screened at 1 μM, read-out: Inhibition of ligand binding, Ser. 5-HT6 (percent inhibition of specific binding). The text has this: Receptor proteins were filtered and washed, the filters were then counted to determine [3H]LSD specifically bound. […] Biochemical assay results are presented as the percent inhibition of specific binding in Table 6.

[6] abbreviates: percent inhibition of specific binding, screened at 1 μM, read-out: Inhibition of ligand binding, Hist. H1.
Setting [7] is: compounds screened at 1 μM, read-out: Inhibition of ligand binding, Hist. H1 (percent inhibition of specific binding).

Like-named read-outs stand apart in the source and are kept apart here.

T1 sequence (P35367 whole entry): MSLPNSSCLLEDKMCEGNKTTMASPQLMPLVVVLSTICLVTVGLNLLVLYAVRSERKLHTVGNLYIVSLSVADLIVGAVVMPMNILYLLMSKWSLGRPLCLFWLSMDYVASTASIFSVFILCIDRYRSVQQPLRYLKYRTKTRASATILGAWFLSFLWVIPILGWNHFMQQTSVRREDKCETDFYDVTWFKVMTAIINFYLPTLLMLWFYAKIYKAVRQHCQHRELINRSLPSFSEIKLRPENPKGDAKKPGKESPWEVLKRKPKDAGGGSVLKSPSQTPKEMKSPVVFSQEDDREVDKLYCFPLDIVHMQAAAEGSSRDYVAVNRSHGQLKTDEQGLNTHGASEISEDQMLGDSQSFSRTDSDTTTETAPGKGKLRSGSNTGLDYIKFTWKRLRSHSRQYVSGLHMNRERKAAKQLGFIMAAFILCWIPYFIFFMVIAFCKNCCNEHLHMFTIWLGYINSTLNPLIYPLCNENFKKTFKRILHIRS

As to `Cc1ccc2c(c1)c1c(n2CCc2ccc(OC(C)(C)C)cc2)CCN(C)C1` [Compound 335, 5-(4-tert-butoxyphenethyl)-2,3,4,5-tetrahydro-2,8-dimethyl-1H-pyrido[4,3-b]indole], the inhibition at 1 µM in assay [1] (setting [6]) turned out to be 96%. The “Inhibition of ligand binding, Adren. alpha2B” value (“Inhibition … Adren. alpha2B” for short) in assay [2] turned out to be 104%. For the same compound, the “Inhibition of ligand binding, Ser. 5-HT2A” value (from here on “Inhibition … Ser. 5-HT2A”) in assay [3] was 97%. In addition, in assay [4], the “Inhibition of ligand binding, Ser. 5-HT2C” value (shortened to “Inhibition … Ser. 5-HT2C”) was 72%. The “Inhibition of ligand binding, Ser. 5-HT6” value in assay [5] is listed as 9%.
On to `COc1ccc(CCn2c3c(c4cc(Cl)ccc42)CN(C)CC3)cc1` [Compound 336, 8-Chloro-5-[2-(4-methoxy-phenyl)-ethyl]-2-methyl-2,3,4,5-tetrahydro-1H pyrido[4,3-b]indole], for which the inhibition at 1 µM in assay [1] (setting [6]) worked out at 107%. Moreover, the “Inhibition … Adren. alpha2B” value in assay [2] came out at 103%. Moreover, the “Inhibition … Ser. 5-HT2A” value in assay [3] amounted to 96%. The “Inhibition … Ser. 5-HT2C” value in assay [4] worked out at 99%. In assay [5], the “Inhibition of ligand binding, Ser. 5-HT6” value was found to be 104%.
Consider `COc1ccc(CCn2c3c(c4cc(Cl)ccc42)CN(C)CC3)cc1F` [Compound 337, 5-(3-fluoro-4-methoxyphenethyl)-8-chloro-2,3,4,5-tetrahydro-2-methyl-1H-pyrido[4,3-b]indole], for which the inhibition at 1 µM in assay [1] (setting [6]) was found to be 99%. In addition, in assay [2], the “Inhibition … Adren. alpha2B” value amounted to 117%. For the same compound, in assay [3], the “Inhibition … Ser. 5-HT2A” value is 101%. The “Inhibition … Ser. 5-HT2C” value in assay [4] is recorded as 94%. Moreover, in assay [5], the “Inhibition of ligand binding, Ser. 5-HT6” value turned out to be 104%.
With `CN1CCc2c(c3ccncc3n2CCc2ccccn2)C1` [Compound 481, 7-aza-2-methyl-5-(2-(pyridin-2-yl)ethyl)-2,3,4,5-tetrahydro-1H-pyrido[4,3-b]indole], the inhibition at 1 µM in assay [1] (setting [7]) was found to be 4%; in assay [2], 19%; in assay [3], 27%; in assay [4], 20%; in assay [5], 14%.
In the same order, the values of `CN1CCc2c(c3ncccc3n2CCc2ccncc2)C1` [Compound 482, 9-aza-2-methyl-5-(2-(pyridin-4-yl)ethyl)-2,3,4,5-tetrahydro-1H-pyrido[4,3-b]indole] are -2%, 10%, -7%, 17% and 4%.
The corresponding values for `CN1CCc2c(c3ccncc3n2CCc2ccncc2)C1` [Compound 483, 7-aza-2-methyl-5-(2-(pyridin-4-yl)ethyl)-2,3,4,5-tetrahydro-1H-pyrido[4,3-b]indole] are -5%, 12%, 2%, 9% and 13%.
In the case of `CN1CCc2c(c3ncccc3n2CCc2ccccn2)C1` [Compound 484, 9-aza-2-methyl-5-(2-(pyridin-2-yl)ethyl)-2,3,4,5-tetrahydro-1H-pyrido[4,3-b]indole], the inhibition at 1 µM is 7% in assay [1] (setting [7]); 30% in assay [2]; 39% in assay [3]; 31% in assay [4]; 14% in assay [5].
In the same order, the values of `Cc1ccc(CCn2c3c(c4cc(I)ccc42)CN(C)CC3)cn1` [Compound 485, 2,3,4,5-tetrahydro-8-iodo-2-methyl-5-(2-(6-methylpyridin-3-yl)ethyl)-1H-pyrido[4,3-b]indole] are 105%, 98%, 69%, 91% and 94%.
As for `CN1CCc2c(c3cc(I)ccc3n2CC(=O)N2CCCCC2)C1` [Compound 486, 2-(1,2,3,4-tetrahydro-8-iodo-2-methylpyrido[4,3-b]indol-5-yl)-1-(piperidin-1-yl)ethanone], the inhibition at 1 µM was 28% in assay [1] (setting [7]); 7% in assay [2]; 19% in assay [3]; 31% in assay [4]; 14% in assay [5].
Regarding `Cc1ccc(CCn2c3c(c4cc(Br)ccc42)CN(C)CC3)cn1` [Compound 487, 8-bromo-2-methyl-5-(2-(6-methylpyridin-3-yl)ethyl)-2,3,4,5-tetrahydro-1H-pyrido[4,3-b]indole], the inhibition at 1 µM in assay [1] (setting [7]) came to 98%; in assay [2] it was 100%; in assay [3], 87%; in assay [4], 84%; in assay [5], 94%.
Take `CN1CCc2c(c3cc(Br)ccc3n2CC(=O)N2CCCCC2)C1` [Compound 516, 2-(8-bromo-2-methyl-3,4-dihydro-1H-pyrido[4,3-b]indol-5(2H)-yl)-1-(piperidin-1-yl)ethanone]: the inhibition at 1 µM was 49% in assay [1] (setting [7]); 21% in assay [2]; 6% in assay [3]; 58% in assay [4]; 9% in assay [5].
Regarding `Cc1ccc2c(c1)c1c(n2CCc2nc(-c3ccccc3)cs2)CCN(C)C1` [Compound C1-5], the inhibition at 1 µM in assay [1] (setting [7]) came to 100%; in assay [2], 113%; in assay [3] it was 97%; in assay [4], 93%; in assay [5], 101%.
Consider `COc1ccc2c(c1)c1c(n2CCc2nc(-c3ccccc3)cs2)CCN(C)C1` [Compound C1-6], for which the inhibition at 1 µM in assay [1] (setting [7]) was 104%; in assay [2], 110%; in assay [3] it was 84%; in assay [4], 90%; in assay [5] it was 84%.
On to `CN1CCc2c(c3cc(F)ccc3n2CCc2nc(-c3ccccc3)cs2)C1` [Compound C1-7], for which the inhibition at 1 µM came out at 99% in assay [1] (setting [7]); 113% in assay [2]; 96% in assay [3]; 91% in assay [4]; 91% in assay [5].
For the compound `CN1CCc2c(c3ccccc3n2CCc2noc(-c3ccccc3)n2)C1` [Compound C4-1], the inhibition at 1 µM in assay [1] (setting [7]) is 93%; in assay [2] it was 94%; in assay [3], 96%; in assay [4] it was 91%; in assay [5], 51%.
With `Cc1ccc2c(c1)c1c(n2CCc2noc(-c3ccccc3)n2)CCN(C)C1` [Compound C4-4], the inhibition at 1 µM in assay [1] (setting [7]) worked out at 101%; in assay [2], 102%; in assay [3], 100%; in assay [4] it was 98%; in assay [5], 103%.
Regarding `CN1CCc2c(c3cc(Cl)ccc3n2CCc2noc(-c3ccccc3)n2)C1` [Compound C4-6], the inhibition at 1 µM was determined as 100% in assay [1] (setting [7]); 94% in assay [2]; 99% in assay [3]; 94% in assay [4]; 105% in assay [5].

The record behind these values is patent publication US9096591B2, “Tetracyclic compounds” (Medivation Technologies, Inc., priority 2007, dated 2015).
